Entries after “also recorded” stand apart in the source; their conditions may differ.
Legend:
Format in all cases: cell-based
[1] = target: T1, c-MYC (Homo sapiens, UniProt P01106); experiment: CURE-PRO-mediated c-MYC degradation in MCF7 cells, Western blot; parameters: endogenous in cells
Description: (§1) Namalwa, Ramosm HeLa, MCF7, or HT29 HCT116 cells (2.5-3×10^6) were treated for 24 hours with the indicated compounds solubilized in DMSO. The cells were washed in ice-cold PBS and were then lysed in RIPA lysis buffer (150 mM NaCl, 5 mM EDTA, 1% NP-40, 0.5% sodium deoxycholate, 0.1% SDS, 50 mM Tris, pH 8.0.) with Roche protease inhibitor complete cocktail and phosphatase inhibitors (10 mM sodium fluoride, 10 mM sodium pyrophosphate, 1 mM sodium orthovanadate and 20 mM β-glycerophosphate). The total protein concentrations were determined by Bradford Protein Assay (Pierce) and 10-20 μg of protein was loaded onto 4-15% Tris-Glycine gradient gels (Biorad). After standard gel electrophoresis, the separated proteins were transferred to PVDF membrane by wet transfer. The immunoblots were then blocked for 1 hour in 5% skim milk in TBST or 5% BSA in TBST, according to manufacturer's instructions, before an overnight incubation at 4° C. with indicated antibodies and membranes. Membranes were then incubated with the appropriate horseradish peroxidase-conjugated secondary antibodies (1:5,000 dilution) for 1 h at room temperature and the bands were visualized using the Clarity Max Western ECL Substrate (Biorad) and the ChemiDoc Imaging System (Biorad). Signal was detected with ECL Western Blotting Substrate (Pierce) and X-ray film processed with a Konica SRX-101 X-ray film processor or captured by Bio-Rad's Chemidoc Imaging system.
MCF7 cells (3×10^6) were treated for 24 h with the compounds solubilized in DMSO. Compounds were added at 100 nM-10 μM each. Standardized protein samples were electrophoresed and imaged as described in the immunoblotting section above. c-MYC monomer, MYC-E33 (FIG. 99) (a 10058-F4 derivatives comprising boronic acid linkers), and VHL ligands, 8304 and 8305 (VH-298 derivatives comprising diol linkers) were combined in a 1:1 ratio.

[2] = target: T1, c-MYC; experiment: CURE-PRO-mediated c-MYC degradation in HT29 cells, Western blot; parameters: endogenous in cells; host or cells: HT29
Description: as §1
HT29 cells (2.5×10^6) were treated for 24 h with the compounds solubilized in DMSO. Compounds were added at 10 nM-10 μM each, as indicated in the description of the figures. Standardized protein samples were electrophoresed and imaged as described in the immunoblotting section above. c-MYC monomers (10058-F4 derivatives comprising catechol linkers), and CRBN ligands, 8048 and 8049 (pomalidomide derivatives comprising boronic acid linkers) combined in a 1:1 ratio.
HT29 cells (2.5×10^6) were treated for 24 h with the compounds solubilized in DMSO. Compounds were added at 100 nM-10 μM each.
(§2) HT29 cells (2.5×10^6) were treated for 24 h with the compounds solubilized in DMSO. Compounds were added at 100 nM-10 μM each. Standardized protein samples were electrophoresed and imaged as described in the immunoblotting section above. c-MYC monomer, MYC-E1, (a 10058-F4 derivative comprising boronic acid linkers), and CRBN ligands, 8046, 8047 and 8066 (pomalidomide derivatives comprising diol linkers) combined in a 1:1 ratio.
as §2, with “monomers, MYC-E6 (FIG. 90), MYC-E10 (FIG. 91), and MYC-E16 (FIG. 92) (10074-G5 derivatives” for “monomer, MYC-E1, (a 10058-F4 derivative”
(§3) HT29 cells (2.5×10^6) were treated for 24 h with the compounds solubilized in DMSO. Compounds were added at 10 nM-10 μM each. Standardized protein samples were electrophoresed and imaged as described in the immunoblotting section above. c-MYC monomer, MYC-N16 (FIG. 93) (10074-G5 derivatives comprising diol linkers), and VHL ligands, 8297 and 8298 (VH-298 derivatives comprising boronic acid linkers) were combined in a 1:1 ratio.
as §3, with “monomers, MYC-E7” for “monomer, MYC-N16”, “96), MYC-E10 (FIG. 97), and MYC-E17 (FIG. 98),” for “93)”, “boronic acid” for “diol”, “diol” for “boronic acid”

[3] = target: T1, c-MYC; experiment: CURE-PRO-mediated c-MYC degradation in HCT1116 cells, Western blot or WES; parameters: endogenous in cells; host or cells: HT29; conditions: 1:1 with MDM2 ligand 8312, HCT1116, 24 h, 10 nM-10 μM each
Description: as §1
WES Simple analysis was performed on WES system (ProteinSimple-Biotechne) according to the manufacturer's instructions. Total protein concentrations of cell lysates were determined by the Pierce BCA kit (Thermo Fisher). 3 μL of 0.3 μg/μL of the protein lysate was loaded onto a 12- to 230-kDa WES assay plate (ProteinSimple) where 300 nL sample was withdrawn through a capillary, subjected to electrophoretic separation of proteins by size, and followed by the simultaneous, HRP-based detection of proteins using the Anti-Rabbit Detection Module (Proteinsimple: #DM-001). The electropherograms were checked then the automatic peak detection was manually corrected if it was required.
HCT1116 cells (2.5×10^6) were treated for 24 h with the compounds solubilized in DMSO. Compounds were added at 10 nM-10 μM each. Standardized protein samples were electrophoresed and imaged as described in the immunoblotting or WES (Proteinsimple) sections above. c-MYC monomers, MYC-N20 (FIG. 100, a 10074-G5 derivative comprising diol linkers), and MYC-N10 (FIG. 101), MYC-N6 (FIG. 102), and MYC-N9 (FIG. 103) (10058-F4 derivatives comprising diol linkers), and MDM2 ligands, 8310 and 8312 (Nutlin 3a derivatives comprising boronic acid linkers) were combined in a 1:1 ratio.
HCT1116 cells (2.5×10^6) were treated for 24 h with the compounds solubilized in DMSO. Compounds were added at 1 μM-10 μM each.

[4] = target: T1, c-MYC; experiment: Summary of C-MYC degradation by CURE-PRO pairs, estimated from Western Blot or WES; parameters: endogenous in cells; host or cells: HT29; conditions: Table 11, aromatic 1,2-diol MYC ligand + 8310
Summary of the method: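 Degradation read-out from immunoblot with ECL, or WES capillary electrophoresis with HRP detection, of RIPA lysates. Cells (Namalwa, Ramos, HeLa, MCF7, HT29 or HCT116) were exposed to DMSO-solubilized compounds for 24 h; a check mark marks 30% to 70% or higher degradation.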

[5] = target: T1, c-MYC; experiment: CURE-PRO-mediated c-MYC degradation in HCT1116 cells, Western blot or WES; parameters: HT29 cells (2.5×10^6) were treated for 24 h with the compounds solubilized in DMSO; endogenous in cells; host or cells: HT29; conditions: 1:1 with MDM2 ligand 8310, HCT1116, 24 h, 10 nM-10 μM each

T1 sequence (P01106 whole entry): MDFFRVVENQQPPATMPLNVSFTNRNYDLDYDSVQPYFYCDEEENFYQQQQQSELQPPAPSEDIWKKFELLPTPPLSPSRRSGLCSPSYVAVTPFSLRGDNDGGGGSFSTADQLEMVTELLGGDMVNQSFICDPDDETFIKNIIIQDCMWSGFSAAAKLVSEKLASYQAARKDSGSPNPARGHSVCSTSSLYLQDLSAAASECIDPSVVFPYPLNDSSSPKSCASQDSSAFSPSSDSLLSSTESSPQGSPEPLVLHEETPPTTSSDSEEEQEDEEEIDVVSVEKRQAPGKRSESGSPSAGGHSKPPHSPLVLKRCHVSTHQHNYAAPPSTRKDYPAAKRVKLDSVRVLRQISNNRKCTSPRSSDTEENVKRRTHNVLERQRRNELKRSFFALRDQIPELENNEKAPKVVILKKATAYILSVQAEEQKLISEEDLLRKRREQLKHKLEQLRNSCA

Row | Compound | c-MYC degradation ([1]; 1:1 with VHL ligand 8304, MCF7, 24 h, 100 nM-10 μM each) | c-MYC degradation ([1]; 1:1 with VHL ligand 8305, MCF7, 24 h, 100 nM-10 μM each) | c-MYC degradation ([1]; c-MYC monomer alone, MCF7, 24 h, 100 nM-10 μM) | c-MYC degradation ([2]; 1:1 with CRBN ligand 8048, HT29, 24 h, 10 nM-10 μM each) | c-MYC degradation ([2]; 1:1 with CRBN ligand 8049, HT29, 24 h, 10 nM-10 μM each) | c-MYC degradation ([2]; c-MYC monomer alone, HT29, 24 h, 10 nM-10 μM) | c-MYC degradation [3] | Degradation of C-MYC, combination with MDM2 ligand 8310 [4] | c-MYC degradation [5]
1 | CCc1ccc(/C=C2\SC(=O)N(CCNC(=O)c3ccc(B(O)O)cc3)C2=O)cc1 [MYC-E33] | caused partial degradation of c-MYC | no loss of c-MYC protein was observed | no loss of c-MYC protein was observed | – | – | – | – | – | –
2 | CCc1ccc(/C=C2\SC(=O)N(CCOCCNC(=O)c3ccc(O)c(O)c3)C2=O)cc1 [MYC-N9] | – | – | – | some degradation is noted; also recorded: caused degradation of c-MYC | produces greater c-MYC degradation than 8048; also recorded: caused degradation of c-MYC | there is no degradation of c-MYC | caused degradation of c-MYC at higher concentrations | √ (A black check mark indicates efficacy of 30% to 70% or higher protein degradation) | caused degradation of c-MYC at higher concentrations

From patent US20230285570A1, “THERAPEUTICALLY USEFUL CURE-PRO MOLECULES FOR E3 LIGASE MEDIATED DEGRADATION OF PROTEINS, AND METHODS OF MAKING AND USING THEM” (CORNELL UNIVERSITY, priority 2020, published 2023)
